Active and inactive are the calls of the source. No cut-off for these calls is given here.
Key:
[1] = Inhibition of Cu2+ induced amyloid beta (1 to 40) fibril aggregation assessed as aggregation level at 100 uM measured on day 7 by UV-visible turbidity method (reference value: 100 +/- 0.96%); set-up: scale not given: the % may be the effect or the level left
[2] = target: Amyloid-beta precursor protein (Homo sapiens) (UniProt P05067); experiment: Inhibition of self-induced amyloid beta (1 to 40) (unknown origin) fibril aggregation assessed as aggregation level at 100 uM measured on day 10 by UV-visible turbidity method; set-up: scale not given: the % may be the effect or the level left
Sequence of Amyloid-beta precursor protein (Homo sapiens) (P05067 whole entry): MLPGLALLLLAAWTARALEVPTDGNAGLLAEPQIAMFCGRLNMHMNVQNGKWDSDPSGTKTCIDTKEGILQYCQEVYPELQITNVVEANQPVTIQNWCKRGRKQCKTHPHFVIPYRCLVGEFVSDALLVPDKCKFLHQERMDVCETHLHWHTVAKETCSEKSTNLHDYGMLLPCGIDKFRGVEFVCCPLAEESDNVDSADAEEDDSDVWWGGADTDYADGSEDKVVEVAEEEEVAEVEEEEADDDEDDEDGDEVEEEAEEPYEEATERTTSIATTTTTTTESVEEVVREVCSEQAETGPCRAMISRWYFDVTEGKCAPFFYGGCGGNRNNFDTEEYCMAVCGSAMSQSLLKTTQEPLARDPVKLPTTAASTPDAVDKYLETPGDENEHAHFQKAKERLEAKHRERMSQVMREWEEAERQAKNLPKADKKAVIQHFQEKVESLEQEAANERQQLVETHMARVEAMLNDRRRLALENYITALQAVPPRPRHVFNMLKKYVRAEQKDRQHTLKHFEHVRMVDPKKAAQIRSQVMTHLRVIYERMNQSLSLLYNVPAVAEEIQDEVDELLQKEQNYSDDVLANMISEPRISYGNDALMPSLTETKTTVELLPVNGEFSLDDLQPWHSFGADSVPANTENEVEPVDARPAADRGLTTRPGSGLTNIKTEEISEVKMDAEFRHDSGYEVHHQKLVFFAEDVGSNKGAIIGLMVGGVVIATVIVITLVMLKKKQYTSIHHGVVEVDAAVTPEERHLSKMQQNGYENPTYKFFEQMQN

[3] = target: Amyloid-beta precursor protein (Homo sapiens) (UniProt P05067); experiment: Inhibition of self-induced amyloid beta (1 to 40) (unknown origin) fibril aggregation assessed as aggregation level at 100 uM measured on day 3 by UV-visible turbidity method; set-up: scale not given: the % may be the effect or the level left
[4] = Metal chelating activity assessed as compound-Cu2+ adduct formation by spectrophotometric analysis
[5] = Disaggregation of Cu2+ induced amyloid beta (1 to 40) preformed fibrils assessed as aggregation level at 100 uM after 12 days by UV-visible turbidity method (reference value: 120.73 +/- 1.86%)
[6] = Inhibition of Cu2+ induced amyloid beta (1 to 40) fibril aggregation assessed as fluorescence emission at 100 uM measured on day 10 by thioflavin-T based assay (reference value: 412.11 +/- 35.93)
[7] = Disaggregation of Cu2+ induced amyloid beta (1 to 40) preformed fibrils assessed as aggregation level at 100 uM after 4 days by UV-visible turbidity method (reference value: 143.11 +/- 0.76%)
HEK293 = experiment: Cytotoxicity against human HEK293 cells assessed as decrease in cell viability after 48 hrs by MTT assay relative to resveratrol; format: cell-based; conditions: hek293, 48 h
[8] = Inhibition of Cu2+ induced amyloid beta (1 to 40) fibril aggregation assessed as aggregation level at 100 uM measured on day 3 by UV-visible turbidity method (reference value: 100 +/- 17.24%); set-up: scale not given: the % may be the effect or the level left
[9] = Antioxidant activity assessed as AAPH radical scavenging activity at 1 to 16 uM by ORAC assay; format: functional
[10] = Metal chelating activity assessed as compound-Cu2+ adduct formation at 20 uM by spectrophotometric titration analysis
[11] = target: Amyloid-beta precursor protein (Homo sapiens) (UniProt P05067); experiment: Inhibition of self-induced amyloid beta (1 to 40) (unknown origin) fibril aggregation assessed as fluorescence emission at 100 uM measured on day 7 by thioflavin-T based assay
[12] = target: Amyloid-beta precursor protein (Homo sapiens) (UniProt P05067); experiment: Disaggregation of self-induced amyloid beta (1 to 40) (unknown origin) preformed fibrils assessed as fluorescence emission at 100 uM after 12 days by thioflavin-T based assay; set-up: reference not given here
[13] = target: Amyloid-beta precursor protein (Homo sapiens) (UniProt P05067); experiment: Inhibition of self-induced amyloid beta (1 to 40) (unknown origin) fibril aggregation assessed as aggregation level at 100 uM measured on day 7 by UV-visible turbidity method; set-up: scale not given: the % may be the effect or the level left
[14] = Metal chelating activity assessed as inhibition of Cu2+ induced amyloid beta (1 to 40) aggregation by measuring decrease in ROS production at 2 equiv after 75 mins by fluorescence assay
[15] = Disaggregation of Cu2+ induced amyloid beta (1 to 40) preformed fibrils assessed as fluorescence emission at 100 uM after 4 days by thioflavin-T based assay (reference value: 178.07 +/- 17.24)
[16] = target: Amyloid-beta precursor protein (Homo sapiens) (UniProt P05067); experiment: Disaggregation of self-induced amyloid beta (1 to 40) (unknown origin) preformed fibrils assessed as aggregation level at 100 uM after 4 days by UV-visible turbidity method
[17] = Inhibition of Cu2+ induced amyloid beta (1 to 40) fibril aggregation assessed as fluorescence emission at 100 uM measured on day 3 by thioflavin-T based assay (reference value: 33.64 +/- 5.80)
[18] = target: Amyloid-beta precursor protein (Homo sapiens) (UniProt P05067); experiment: Inhibition of self-induced amyloid beta (1 to 40) (unknown origin) fibril aggregation assessed as fluorescence emission at 100 uM measured on day 3 by thioflavin-T based assay
Beta-secretase 1 [19] = target: T1, Beta-secretase 1 (Homo sapiens, UniProt P56817); experiment: Inhibition of BACE 1 (unknown origin) using 250 nM of Rh-EVNLDAEFK-Quencher as substrate after 1 hr by FRET assay
T1 sequence (P56817 whole entry): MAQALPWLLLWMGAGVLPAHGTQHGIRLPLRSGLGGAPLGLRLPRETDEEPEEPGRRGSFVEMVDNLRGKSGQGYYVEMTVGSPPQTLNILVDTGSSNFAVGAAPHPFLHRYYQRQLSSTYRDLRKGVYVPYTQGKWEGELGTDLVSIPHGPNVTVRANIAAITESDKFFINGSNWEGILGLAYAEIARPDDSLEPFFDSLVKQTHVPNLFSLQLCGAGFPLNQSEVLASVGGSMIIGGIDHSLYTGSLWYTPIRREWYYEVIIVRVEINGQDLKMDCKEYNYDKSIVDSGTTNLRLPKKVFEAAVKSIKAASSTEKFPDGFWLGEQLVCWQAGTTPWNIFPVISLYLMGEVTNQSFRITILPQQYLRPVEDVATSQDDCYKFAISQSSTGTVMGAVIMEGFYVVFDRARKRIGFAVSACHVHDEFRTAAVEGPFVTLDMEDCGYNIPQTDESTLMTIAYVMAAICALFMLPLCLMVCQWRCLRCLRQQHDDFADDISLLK

[20] = target: Amyloid-beta precursor protein (Homo sapiens) (UniProt P05067); experiment: Disaggregation of self-induced amyloid beta (1 to 40) (unknown origin) preformed fibrils assessed as aggregation level at 100 uM after 12 days by UV-visible turbidity method
[21] = Cytotoxicity against human HEK293 cells assessed as decrease in cell viability after 48 hrs by MTT assay; format: cell-based; conditions: read-out: LD50
[22] = Inhibition of Cu2+ induced amyloid beta (1 to 40) fibril aggregation assessed as aggregation level at 100 uM measured on day 10 by UV-visible turbidity method (reference value: 100 +/- 8.72%); set-up: scale not given: the % may be the effect or the level left
[23] = target: Amyloid-beta precursor protein (Homo sapiens) (UniProt P05067); experiment: Inhibition of self-induced amyloid beta (1 to 40) (unknown origin) fibril aggregation assessed as fluorescence emission at 100 uM measured on day 10 by thioflavin-T based assay; set-up: reference not given here
[24] = Disaggregation of Cu2+ induced amyloid beta (1 to 40) preformed fibrils assessed as fluorescence emission at 100 uM after 12 days by thioflavin-T based assay (reference value: 150.21 +/- 2.32)
[25] = target: Amyloid-beta precursor protein (Homo sapiens) (UniProt P05067); experiment: Disaggregation of self-induced amyloid beta (1 to 40) (unknown origin) preformed fibrils assessed as fluorescence emission at 100 uM after 4 days by thioflavin-T based assay; set-up: reference not given here
[26] = Inhibition of Cu2+ induced amyloid beta (1 to 40) fibril aggregation assessed as fluorescence emission at 100 uM measured on day 7 by thioflavin-T based assay (reference value: 181.04 +/- 1.74)
Beta-secretase 1 [27] = target: T1, Beta-secretase 1; experiment: Inhibition of BACE 1 (unknown origin) at 50 uM using Rh-EVNLDAEFK-Quencher as substrate after 1 hr by FRET assay relative to control
[28] = target: Amyloid-beta precursor protein (Homo sapiens) (UniProt P05067); experiment: Induction of amyloid beta (1 to 40) (unknown origin) amorphous aggregation at 100 uM after 10 days
[29] = Toxicity in Tetrahymena thermophila assessed as decrease in viability after 48 hrs by MTT assay; format: organism-based; conditions: Tetrahymena thermophila cells, read-out: LD50
Beta-secretase 1 [30] = target: T1, Beta-secretase 1; experiment: Inhibition of BACE 1 (unknown origin) at 10 to 50 uM using Rh-EVNLDAEFK-Quencher as substrate after 1 hr by FRET assay relative to control
Beta-secretase 1 [31] = target: T1, Beta-secretase 1; experiment: Inhibition of BACE 1 (unknown origin) using 500 nM of Rh-EVNLDAEFK-Quencher as substrate after 1 hr by FRET assay
Tetrahymena thermophila = experiment: Toxicity in Tetrahymena thermophila assessed as decrease in viability after 48 hrs by MTT assay relative to resveratrol; format: organism-based; conditions: in vivo
[32] = Antioxidant activity assessed as AAPH radical scavenging activity up to 64 uM by ORAC assay; format: functional

| Structure (SMILES) | Activity [1] [%] | Activity [3] [%] | Activity [5] [%] | Flu intensity [6] | Activity [7] [%] | Activity [8] [%] | ORAC (Trolox equivalents) [9] | Flu intensity [11] | Flu intensity [12] | Activity [13] [%] | inhibition [14] [%] | Flu intensity [15] | Flu intensity [17] | Flu intensity [18] | Activity [20] [%] | CC50 at 48 h [21] [µM] | Activity [22] [%] | Flu intensity [23] | Flu intensity [24] | Flu intensity [25] | further results |
| --- | --- | --- | --- | --- | --- | --- | --- | --- | --- | --- | --- | --- | --- | --- | --- | --- | --- | --- | --- | --- | --- |
| Oc1ccccc1/C=N/CCNc1ccnc2cc(Cl)ccc12 | 98.5 | 137 | 54.8 | 161 | 78 | 410 | 2.33 | 458 | 230 | 117 | 57.9 | 97 | 138 | 344 | 90 | 113 | 39.1 | 286 | 68.2 | 262 | Activity [2]: 94.3%; Activity [4]: Active; fold change (FC) (HEK293): 1.6; logKa [10]: 15.3; Activity [16]: 102%; IC50 (Beta-secretase 1 [19]): > 160 µM; Flu intensity [26]: 178; inhibition (Beta-secretase 1 [27]): 29.6%; Activity [28]: 6 to 33% |
| Oc1ccc(/C=C/c2cc(O)cc(O)c2)cc1 [RESVERATROL] | 35.9 | 108 | 20.2 | 27.3 | 23.9 | 222 | 1.7 | 294 | 114 | 75.2 | 9 | 29.8 | 74.7 | 272 | 44.5 | 71.3 | 6.63 | 251 | 25.2 | 230 | LC50 at 48 h [29]: 240 µM; Flu intensity [26]: 65 |
| Cl.Oc1ccc(/C=N/CCNCCn2cnc3ccccc32)c(O)c1 | 58.5 | 65.6 | 38.6 | 95 | 48.5 | 328 | 1.42 | 225 | 160 | 57.5 | 93.7 | 60.4 | 110 | 165 | 62.6 | 184 | 23.1 | 282 | 48 | 184 | inhibition (Beta-secretase 1 [30]): < 50%; Activity [2]: 69%; LC50 at 48 h [29]: 529 µM; Activity [4]: Active; fold change (FC) (HEK293): 2.6; logKa [10]: 14.8; IC50 (Beta-secretase 1 [31]): 18.5 µM; Activity [16]: 72.2%; fold change (FC) (Tetrahymena thermophila): 2.2; IC50 (Beta-secretase 1 [19]): 15.6 µM; Flu intensity [26]: 106; inhibition (Beta-secretase 1 [27]): 62.5%; Activity [28]: 6 to 33% |
| Cl.Nc1ncnc2c1ncn2CCNCC/N=C/c1ccc(O)cc1O | 94.8 | 98.2 | 30.9 | 135 | 48.9 | 299 | 2.39 | 356 | 226 | 90.9 | 97.5 | 60.9 | 100 | 247 | 88.4 | 336 | 32.7 | 367 | 38.4 | 246 | inhibition (Beta-secretase 1 [30]): < 50%; Activity [2]: 89.8%; LC50 at 48 h [29]: 811 µM; Activity [4]: Active; fold change (FC) (HEK293): 4.7; logKa [10]: 14.8; IC50 (Beta-secretase 1 [31]): 42 µM; Activity [16]: 96.3%; fold change (FC) (Tetrahymena thermophila): 3.4; IC50 (Beta-secretase 1 [19]): 41.4 µM; Flu intensity [26]: 172; inhibition (Beta-secretase 1 [27]): 59.2%; Activity [28]: 6 to 33% |
| CCN(CC)CCCC(C)Nc1ccnc2cc(Cl)ccc12 (stereo not drawn) | – | – | – | – | – | – | – | – | – | – | – | – | – | – | – | – | – | – | – | – | inhibition (Beta-secretase 1 [30]): < 50% |
| C[C@@]1(c2cc(-c3cncnc3)c(F)cc2F)CCSC(N)=N1 | – | – | – | – | – | – | – | – | – | – | – | – | – | – | – | – | – | – | – | – | inhibition (Beta-secretase 1 [27]): 100% |
| Oc1ccc(/C=N/CCn2ccc3cccnc32)c(O)c1 | 129 | 124 | 59.7 | 185 | 85.4 | 673 | 8.13 | 368 | 219 | 94 | 71.9 | 106 | 227 | 310 | 85.9 | 280 | 44.9 | 344 | 74.3 | 226 | inhibition (Beta-secretase 1 [30]): < 50%; Activity [2]: 84.2%; LC50 at 48 h [29]: 610 µM; Activity [4]: Active; fold change (FC) (HEK293): 3.9; logKa [10]: 12.7; Activity [16]: 88.4%; fold change (FC) (Tetrahymena thermophila): 2.5; IC50 (Beta-secretase 1 [19]): 107 µM; Flu intensity [26]: 233; inhibition (Beta-secretase 1 [27]): 31.6%; Activity [28]: 6 to 33% |
| Oc1ccc(/C=N/CCn2ccc3ccccc32)c(O)c1 | 112 | 109 | 47.5 | 155 | 58.6 | 722 | 5.22 | 336 | 183 | 86 | 68.5 | 73 | 243 | 273 | 71.8 | 193 | 37.6 | 298 | 59 | 213 | inhibition (Beta-secretase 1 [30]): < 50%; Activity [2]: 73%; LC50 at 48 h [29]: 556 µM; Activity [4]: Active; fold change (FC) (HEK293): 2.7; logKa [10]: 13.4; IC50 (Beta-secretase 1 [31]): 5.7 µM; Activity [16]: 83.2%; fold change (FC) (Tetrahymena thermophila): 2.3; IC50 (Beta-secretase 1 [19]): 4.4 µM; Flu intensity [26]: 203; inhibition (Beta-secretase 1 [27]): 100%; Activity [28]: 6 to 33% |
| O=C(NCCNc1ccnc2cc(Cl)ccc12)c1cnccn1 | 135 | 125 | 57.6 | 195 | 87.7 | 124 | – | 707 | 224 | 181 | 36.2 | 109 | 41.7 | 313 | 87.8 | 113 | 47.2 | 767 | 71.7 | 289 | Activity [2]: 188%; fold change (FC) (HEK293): 1.6; logKa [10]: inactive; IC50 (Beta-secretase 1 [31]): 9.9 µM; Activity [16]: 113%; Activity [32]: inactive; IC50 (Beta-secretase 1 [19]): 1.7 µM; Flu intensity [26]: 245; inhibition (Beta-secretase 1 [27]): 91% |
| O=C1O[C@H]([C@@H](O)CO)C(O)=C1O | – | – | – | – | – | – | 62.2 | – | – | – | – | – | – | – | – | – | – | – | – | – | – |

Source: ChEMBL document CHEMBL4152355, “Novel multi-target compounds in the quest for new chemotherapies against Alzheimer's disease: An experimental and theoretical study” (Bioorg Med Chem, 2018)
